In ChEMBL document CHEMBL1147597, “Synthesis and biological evaluations of novel benzimidazoles as potential antibacterial agents” (Bioorg Med Chem Lett, 2004):
Converted amounts (≈) assume the structure as drawn. One block for each molecule: values may come before it.

Columns and labels:
Staphylococcus aureus [1] = experiment: Minimal inhibitory concentration against Staphylococcus aureus (Range is 6-12 uM); format: functional
Enterococcus hirae [2] = experiment: Minimal inhibitory concentration against gram positive Enterococcus hirae 29212 strain (Range is 1-3 uM); format: functional
Escherichia coli [3] = experiment: Minimal inhibitory concentration against Escherichia coli (Range is 12-25 uM); format: functional
Staphylococcus aureus [4] = experiment: Minimal inhibitory concentration against gram positive Staphylococcus aureus 13709 strain (Range is 6-12 uM); format: functional
Bacteria = experiment: Inhibitory activity against bacteria in the transcription/translation assay; format: functional, organism-based
Escherichia coli [5] = experiment: Minimal inhibitory concentration against gram negative Escherichia coli 25922 strain (Range is 12-25 uM); format: functional; settings: ATCC25922
Streptococcus pyogenes [6] = experiment: Minimal inhibitory concentration against gram positive Streptococcus pyogenes 49399 strain (Range is 3-6 uM); format: functional
Pseudomonas aeruginosa [7] = experiment: Minimal inhibitory concentration against gram negative Pseudomonas aeruginosa 25416 strain (Range is 12-25 uM); format: functional
Streptococcus pneumoniae [8] = experiment: Minimal inhibitory concentration against gram positive Streptococcus pneumoniae 6303 strain (Range is 6-12 uM); format: functional
Klebsiella pneumoniae [9] = experiment: Minimal inhibitory concentration against gram negative Klebsiella pneumoniae 13383 strain (Range is 6-12 uM); format: functional
Staphylococcus aureus [10] = experiment: Minimal inhibitory concentration against Staphylococcus aureus (Range is 50-100 uM); format: functional
Escherichia coli [11] = experiment: Minimal inhibitory concentration against Escherichia coli; format: functional
Streptococcus pyogenes [12] = experiment: Minimal inhibitory concentration against gram positive Streptococcus pyogenes 49399 strain (Range is 6-12 uM); format: functional
Proteus vulgaris [13] = experiment: Minimal inhibitory concentration against gram negative Proteus vulgaris 8427 strain; format: functional
Klebsiella pneumoniae [14] = experiment: Minimal inhibitory concentration against gram negative Klebsiella pneumoniae 13383 strain (Range is 12-25 uM); format: functional
Escherichia coli [15] = experiment: Minimal inhibitory concentration against Escherichia coli (Range is 25-50 uM); format: functional
Streptococcus pneumoniae [16] = experiment: Minimal inhibitory concentration against gram positive Streptococcus pneumoniae 6303 strain (Range is 12-25 uM); format: functional
Escherichia coli [17] = experiment: Minimal inhibitory concentration against gram negative Escherichia coli 25922 strain (Range is 25-50 uM); format: functional; settings: ATCC25922
Pseudomonas aeruginosa [18] = experiment: Minimal inhibitory concentration against gram negative Pseudomonas aeruginosa 25416 strain; format: functional
Staphylococcus aureus [19] = experiment: Minimal inhibitory concentration against Staphylococcus aureus (Range is 12-25 uM); format: functional
Escherichia coli [20] = experiment: Minimal inhibitory concentration against Escherichia coli (Range is 50-100 uM); format: functional
Staphylococcus aureus [21] = experiment: In vitro minimal inhibitory concentration against Staphylococcus aureus.; format: functional
Staphylococcus aureus [22] = experiment: Minimal inhibitory concentration against Staphylococcus aureus (Range is 25-50 uM); format: functional
Escherichia coli [23] = experiment: Minimal inhibitory concentration against Escherichia coli (Range is 3-6 uM); format: functional
Staphylococcus aureus [24] = experiment: Minimal inhibitory concentration against Staphylococcus aureus (Range is 1-3 uM); format: functional
Klebsiella pneumoniae [25] = experiment: Minimal inhibitory concentration against gram negative Klebsiella pneumoniae 13383 strain (Range is 25-50 uM); format: functional
Proteus vulgaris [26] = experiment: Minimal inhibitory concentration against gram negative Proteus vulgaris 8427 strain (Range is 12-25 uM); format: functional
Enterococcus hirae [27] = experiment: Minimal inhibitory concentration against gram positive Enterococcus hirae 29212 strain (Range is 3-6 uM); format: functional
Pseudomonas aeruginosa [28] = experiment: Minimal inhibitory concentration against gram negative Pseudomonas aeruginosa 25416 strain (Range is 50-100 uM); format: functional
Escherichia coli [29] = experiment: Minimal inhibitory concentration against gram negative Escherichia coli 25922 strain; format: functional; settings: ATCC25922
Proteus vulgaris [30] = experiment: Minimal inhibitory concentration against gram negative Proteus vulgaris 8427 strain (Range is 50-100 uM); format: functional
Staphylococcus aureus [31] = experiment: Minimal inhibitory concentration against Staphylococcus aureus (Range is 3-6 uM); format: functional
Staphylococcus aureus [32] = experiment: Minimal inhibitory concentration against gram positive Staphylococcus aureus 13709 strain (Range is 3-6 uM); format: functional

MIC (Staphylococcus aureus [1]): 12 µM (≈ 7.47 µg/mL)
MIC (Enterococcus hirae [2]): 3 µM (≈ 1.87 µg/mL)
MIC (Escherichia coli [3]): 25 µM (≈ 15.6 µg/mL)
MIC (Staphylococcus aureus [4]): 12 µM (≈ 7.47 µg/mL)
IC50 (Bacteria): > 100 µM
MIC (Escherichia coli [5]): 25 µM (≈ 15.6 µg/mL)
MIC (Streptococcus pyogenes [6]): 6 µM (≈ 3.73 µg/mL)
MIC (Pseudomonas aeruginosa [7]): 25 µM (≈ 15.6 µg/mL)
MIC (Streptococcus pneumoniae [8]): 12 µM (≈ 7.47 µg/mL)
MIC (Klebsiella pneumoniae [9]): 12 µM (≈ 7.47 µg/mL)
SMILES: Clc1cc2nc(C3CCNCC3)n(CCCCCCn3c(C4CCNCC4)nc4cc(Cl)c(Cl)cc43)c2cc1Cl

MIC (Staphylococcus aureus [10]): 100 µM (≈ 48.1 µg/mL)
MIC (Escherichia coli [11]): > 100 µM
SMILES: O=C(Cn1c(C2CCNCC2)nc2cc(Cl)c(Cl)cc21)NNC(=S)NCc1ccco1

MIC (Streptococcus pyogenes [12]): 12 µM (≈ 6.26 µg/mL)
MIC (Staphylococcus aureus [1]): 12 µM (≈ 6.26 µg/mL)
MIC (Enterococcus hirae [2]): 3 µM (≈ 1.56 µg/mL)
MIC (Proteus vulgaris [13]): > 100 µM
MIC (Klebsiella pneumoniae [14]): 25 µM (≈ 13 µg/mL)
MIC (Staphylococcus aureus [4]): 12 µM (≈ 6.26 µg/mL)
IC50 (Bacteria): > 100 µM
MIC (Escherichia coli [15]): 50 µM (≈ 26.1 µg/mL)
MIC (Streptococcus pneumoniae [16]): 25 µM (≈ 13 µg/mL)
MIC (Escherichia coli [17]): 50 µM (≈ 26.1 µg/mL)
MIC (Pseudomonas aeruginosa [18]): > 100 µM
SMILES: COc1cc(NC(=O)NNC(=O)Cn2c(C3CCNCC3)nc3cc(Cl)c(Cl)cc32)cc(OC)c1

MIC (Escherichia coli [15]): 50 µM (≈ 25.4 µg/mL)
MIC (Staphylococcus aureus [19]): 25 µM (≈ 12.7 µg/mL)
SMILES: CSc1ccc(NC(=O)NNC(=O)Cn2c(C3CCNCC3)nc3cc(Cl)c(Cl)cc32)cc1

MIC (Escherichia coli [20]): 100 µM (≈ 53 µg/mL)
MIC (Staphylococcus aureus [21]): > 100 µM
SMILES: O=C1c2ccc([N+](=O)[O-])cc2C(=O)N1CCCCCn1c(C2CCNCC2)nc2cc(Cl)c(Cl)cc21

MIC (Escherichia coli [11]): > 100 µM
MIC (Staphylococcus aureus [22]): 50 µM (≈ 23.8 µg/mL)
SMILES: O=C(Cn1c(C2CCNCC2)nc2cc(Cl)c(Cl)cc21)N/N=C/c1cccc([N+](=O)[O-])c1

MIC (Escherichia coli [11]): > 100 µM
MIC (Staphylococcus aureus [21]): > 100 µM
SMILES: O=C1c2ccccc2C(=O)N1CCn1c(C2CCNCC2)nc2cc(Cl)c(Cl)cc21

MIC (Escherichia coli [11]): > 100 µM
MIC (Staphylococcus aureus [19]): 25 µM (≈ 12 µg/mL)
SMILES: O=C(Cn1c(C2CCNCC2)nc2cc(Cl)c(Cl)cc21)N/N=C/c1ccc(O)c(O)c1O

MIC (Escherichia coli [11]): > 100 µM
MIC (Staphylococcus aureus [22]): 50 µM (≈ 23 µg/mL)
SMILES: COc1cccc(/C=N/NC(=O)Cn2c(C3CCNCC3)nc3cc(Cl)c(Cl)cc32)c1

MIC (Escherichia coli [11]): > 100 µM
MIC (Staphylococcus aureus [22]): 50 µM (≈ 26.1 µg/mL)
SMILES: COc1cc(/C=N/NC(=O)Cn2c(C3CCNCC3)nc3cc(Cl)c(Cl)cc32)cc([N+](=O)[O-])c1O

MIC (Escherichia coli [11]): > 100 µM
MIC (Staphylococcus aureus [21]): > 100 µM
SMILES: Clc1cc2nc(C3CCNCC3)n(CCCCCn3cnnc3)c2cc1Cl

MIC (Escherichia coli [11]): > 100 µM
MIC (Staphylococcus aureus [21]): > 100 µM
SMILES: O=C(Cn1c(C2CCNCC2)nc2cc(Cl)c(Cl)cc21)N/N=C/c1cc[n+]([O-])cc1

SMILES: NC[C@@H]1O[C@H](O[C@H]2[C@@H](O)[C@H](O[C@@H]3[C@@H](O)[C@H](N)C[C@H](N)[C@H]3O[C@H]3O[C@H](CO)[C@@H](O)[C@H](O)[C@H]3N)O[C@@H]2CO)[C@H](N)[C@@H](O)[C@@H]1O [PAROMOMYCIN]
MIC (Escherichia coli [23]): 6 µM (≈ 3.69 µg/mL)
MIC (Staphylococcus aureus [24]): 3 µM (≈ 1.85 µg/mL)

MIC (Streptococcus pyogenes [12]): 12 µM (≈ 6.23 µg/mL)
MIC (Klebsiella pneumoniae [25]): 50 µM (≈ 26 µg/mL)
MIC (Staphylococcus aureus [1]): 12 µM (≈ 6.23 µg/mL)
MIC (Proteus vulgaris [26]): 25 µM (≈ 13 µg/mL)
MIC (Escherichia coli [3]): 25 µM (≈ 13 µg/mL)
MIC (Staphylococcus aureus [4]): 12 µM (≈ 6.23 µg/mL)
IC50 (Bacteria): > 100 µM
MIC (Streptococcus pneumoniae [16]): 25 µM (≈ 13 µg/mL)
MIC (Escherichia coli [5]): 25 µM (≈ 13 µg/mL)
MIC (Enterococcus hirae [27]): 6 µM (≈ 3.12 µg/mL)
MIC (Pseudomonas aeruginosa [18]): > 100 µM
SMILES: O=C(Cn1c(C2CCNCC2)nc2cc(Cl)c(Cl)cc21)NNC(=O)NC12C[C@H]3C[C@@H](C1)C[C@@H](C2)C3

MIC (Escherichia coli [11]): > 100 µM
MIC (Staphylococcus aureus [21]): > 100 µM
SMILES: O=C1CCC(=O)N1CCCCCn1c(C2CCNCC2)nc2cc(Cl)c(Cl)cc21

MIC (Staphylococcus aureus [10]): 100 µM (≈ 45.7 µg/mL)
MIC (Escherichia coli [15]): 50 µM (≈ 22.9 µg/mL)
SMILES: Clc1cc2nc(C3CCNCC3)n(CCCCCN3Cc4ccccc4C3)c2cc1Cl

MIC (Escherichia coli [11]): > 100 µM
MIC (Staphylococcus aureus [21]): > 100 µM
SMILES: O=C1c2cc3ccccc3cc2C(=O)N1CCCCCn1c(C2CCNCC2)nc2cc(Cl)c(Cl)cc21

MIC (Streptococcus pyogenes [12]): 12 µM (≈ 6.91 µg/mL)
MIC (Pseudomonas aeruginosa [28]): 100 µM (≈ 57.6 µg/mL)
MIC (Escherichia coli [11]): > 100 µM
IC50 (Bacteria): > 100 µM
MIC (Escherichia coli [29]): > 100 µM
MIC (Proteus vulgaris [30]): 100 µM (≈ 57.6 µg/mL)
MIC (Staphylococcus aureus [31]): 6 µM (≈ 3.45 µg/mL)
MIC (Streptococcus pneumoniae [16]): 25 µM (≈ 14.4 µg/mL)
MIC (Staphylococcus aureus [32]): 6 µM (≈ 3.45 µg/mL)
MIC (Enterococcus hirae [27]): 6 µM (≈ 3.45 µg/mL)
MIC (Klebsiella pneumoniae [9]): 12 µM (≈ 6.91 µg/mL)
SMILES: O=C(Cn1c(C2CCNCC2)nc2cc(Cl)c(Cl)cc21)N/N=C/c1c[nH]c2ccc(OCc3ccccc3)cc12

MIC (Staphylococcus aureus [10]): 100 µM (≈ 52 µg/mL)
MIC (Escherichia coli [11]): > 100 µM
SMILES: CN(C)c1ccc(N/C(S)=N/NC(=O)Cn2c(C3CCNCC3)nc3cc(Cl)c(Cl)cc32)cc1

MIC (Escherichia coli [11]): > 100 µM
MIC (Staphylococcus aureus [22]): 50 µM (≈ 24.1 µg/mL)
SMILES: O=C(Cn1c(C2CCNCC2)nc2cc(Cl)c(Cl)cc21)N/N=C/c1ccc2ccccc2n1

MIC (Escherichia coli [11]): > 100 µM
MIC (Staphylococcus aureus [19]): 25 µM (≈ 10.5 µg/mL)
SMILES: O=C(Cn1c(C2CCNCC2)nc2cc(Cl)c(Cl)cc21)N/N=C/c1ccc[nH]1

MIC (Staphylococcus aureus [10]): 100 µM (≈ 48.8 µg/mL)
MIC (Escherichia coli [11]): > 100 µM
SMILES: O=C(Cn1c(C2CCNCC2)nc2cc(Cl)c(Cl)cc21)N/N=C/c1ccc2c(c1)OCCO2

MIC (Escherichia coli [11]): > 100 µM
MIC (Staphylococcus aureus [21]): > 100 µM
SMILES: O=C1c2ccccc2C(=O)N1CCCCCCn1c(C2CCNCC2)nc2cc(Cl)c(Cl)cc21

MIC (Escherichia coli [11]): > 100 µM
MIC (Staphylococcus aureus [21]): > 100 µM
SMILES: O=C1c2ccccc2C(=O)N1CCCn1c(C2CCNCC2)nc2cc(Cl)c(Cl)cc21

MIC (Escherichia coli [11]): > 100 µM
MIC (Staphylococcus aureus [21]): > 100 µM
SMILES: O=C(NCCCCCn1c(C2CCNCC2)nc2cc(Cl)c(Cl)cc21)c1ccccc1
